Data on 31 compounds can be found in ChEMBL document CHEMBL6177991, “Discovery of P11-2: A Potent First-in-Class MNK1-Targeting PROTAC Degrader for the Treatment of Cancer” (J Med Chem, 2025).

The test system of data set [1] is MV4-11. Kind of data set: Anti-proliferative activity against human MV4-11 cells measured after 72 hrs by CCK8 assay. Conditions: MV4-11, 72 h. (Tetrazolium dyes change colour on reduction, which living cells bring about.)
In data set [2] the test system is MM1.S. Description: Anti-proliferative activity against human MM1.S cells measured after 120 hrs by CCK8 assay.
In data set [3] the test system is MDA-MB-231. Description: Anti-proliferative activity against human MDA-MB-231 cells measured after 96 hrs by CCK8 assay. Conditions: MDA-MB-231, 96 h.
Data set [4] has as its system MOLM-13. Kind of data set: Anti-proliferative activity against human MOLM-13 cells measured after 72 hrs by CCK8 assay. Conditions: MOLM-13, 72 h.
Data set [5] has as its system MV4-11. Kind of data set: Induction of apoptosis in human MV4-11 cells assessed as early apoptotic cells at 300 nM incubated for 24 hrs by Annexin V-FITC/PI dual staining based flow cytometric analysis (reference value: 3.42 %). Format: functional.
In data set [6] the test system is MV4-11. Kind of data set: Antitumor activity against human MV4-11 cells xenografted in nude female NSG mouse assessed as tumor growth inhibition at 20 mg/kg, ip qd administrated for 16 days by caliper method relative to control. Format: functional. Conditions: MV4-11, 384 h, time 16 day, read-out: TGI.
In data set [7] the test system is MV4-11. Description: Induction of MNK2 degradation in human MV4-11 cells at 300 to 1000 nM incubated for 24 hrs by immunoblot analysis. Conditions: dose 300-1000 nM. It counts as cell-based.
The target of data set [8] is MAP kinase-interacting serine/threonine-protein kinase 1 (Homo sapiens, UniProt Q9BUB5). Description: Inhibition of recombinant MNK1 (unknown origin) using TATKSGSTTKNR peptide as substrate preincubated for 5 mins followed by ATP addition and measured after 40 mins by ADP-Glo kinase assay. (In general: ADP-Glo turns the ADP formed in a reaction into a luminescent signal.)
Chain of MAP kinase-interacting serine/threonine-protein kinase 1 (Q9BUB5 whole entry): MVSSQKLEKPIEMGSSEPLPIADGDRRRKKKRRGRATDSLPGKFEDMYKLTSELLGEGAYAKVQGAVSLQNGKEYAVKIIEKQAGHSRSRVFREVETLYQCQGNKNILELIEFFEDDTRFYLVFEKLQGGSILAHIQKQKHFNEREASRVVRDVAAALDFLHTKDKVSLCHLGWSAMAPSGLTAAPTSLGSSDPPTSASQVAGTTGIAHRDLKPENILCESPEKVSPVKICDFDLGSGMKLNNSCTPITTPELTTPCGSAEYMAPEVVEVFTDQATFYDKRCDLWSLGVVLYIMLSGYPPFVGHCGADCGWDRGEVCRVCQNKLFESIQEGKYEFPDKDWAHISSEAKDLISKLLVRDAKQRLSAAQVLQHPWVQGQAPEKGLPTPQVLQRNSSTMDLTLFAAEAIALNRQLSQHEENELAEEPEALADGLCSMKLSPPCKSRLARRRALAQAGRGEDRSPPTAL

Data set [9] can be described thus: Toxicity in nude female NSG mouse xenografted with human MV4-11 cells assessed as change in body weight at 20 mg/kg, ip qd administrated for 16 days. Format: organism-based. Conditions: in vivo, 384 h, time 16 day. (In general: A xenograft is tissue or cells of one species grown in another, often human tumour cells in immunodeficient mice.)
The subject of data set [10] is MV4-11. Description: Induction of apoptosis in human MV4-11 cells assessed as necrotic cells at 300 nM incubated for 24 hrs by Annexin V-FITC/PI dual staining based flow cytometric analysis (reference value: 0.16 %). It counts as functional.
Data set [11] deals with MV4-11. Kind of data set: Induction of apoptosis in human MV4-11 cells assessed as viable cells at 300 nM incubated for 24 hrs by Annexin V-FITC/PI dual staining based flow cytometric analysis (reference value: 94.9 %). It counts as functional. Conditions: read-out: Activity.
The subject of data set [12] is MV4-11. Kind of data set: Induction of apoptosis in human MV4-11 cells assessed as late apoptotic cells at 300 nM incubated for 24 hrs by Annexin V-FITC/PI dual staining based flow cytometric analysis (reference value: 1.48 %). Format: functional.

Each structure is given as a SMILES string. The source made the active and inactive calls. No cut-off for these calls is given here.

What is called IC50 is the concentration that gives 50% inhibition. On to `O=C1CCC(N2Cc3c(NC(=O)CCCCCCCC(=O)N4CCC(C(=O)Nc5ncc(-c6ccccc6)s5)CC4)cccc3C2=O)C(=O)N1` (stereo not drawn), for which the IC50 in [1] was found to be 4.59 µM.
In the case of `O=C1CCC(N2Cc3c(NC(=O)CCCCOc4ccc(CC(=O)N5CCC(C(=O)Nc6ncc(-c7ccccc7)s6)CC5)cc4)cccc3C2=O)C(=O)N1` (stereo not drawn), the IC50 is 2430 nM in [2], 1.44 µM in data set [1], over 20 µM in [3] and 9.52 µM in [4].
In data set [1], `O=C1CCC(N2C(=O)c3cc(F)c(N4CCN(C(=O)CCCCCN5CCC(C(=O)Nc6ncc(-c7ccccc7)s6)CC5)CC4)cc3C2=O)C(=O)N1` (stereo not drawn) had an IC50 of over 10 µM.
Still for that read-out and setting: the figure for `O=C1CCC(N2C(=O)c3cc(F)c(N4CCN(C(=O)CCC(=O)N5CCC(C(=O)Nc6ncc(-c7ccccc7)s6)CC5)CC4)cc3C2=O)C(=O)N1` (stereo not drawn) is 5.13 µM.
Take `O=C1CCC(N2Cc3c(NC(=O)CCCCCCC(=O)N4CCC(C(=O)Nc5ncc(-c6ccccc6)s5)CC4)cccc3C2=O)C(=O)N1` (stereo not drawn): the IC50 in [2] was 410 nM; in data set [1], 0.21 µM; in [3] it was 5.74 µM; in [4], 1.95 µM.
Regarding `O=C1CCC(N2C(=O)c3cc(F)c(N4CCN(C(=O)CCCN5CCC(C(=O)Nc6ncc(-c7ccccc7)s6)CC5)CC4)cc3C2=O)C(=O)N1` (stereo not drawn), the IC50 in data set [1] came out at 8.47 µM.
On to `O=C1CCC(N2C(=O)c3cc(F)c(N4CCN(C(=O)CCCCCCC(=O)N5CCC(C(=O)Nc6ncc(-c7ccccc7)s6)CC5)CC4)cc3C2=O)C(=O)N1` (stereo not drawn), for which the IC50 in [2] was 3840 nM; in data set [1], 2.28 µM; in [3] it was over 20 µM; in data set [4], 10 µM.
With `O=C(CC(=O)N1CCC(C(=O)Nc2ncc(-c3ccccc3)s2)CC1)NCCCCC(=O)Nc1cccc2c1CN(C1CCC(=O)NC1=O)C2=O` (stereo not drawn), the IC50 in [1] came to 6.17 µM.
On the same count and under the same terms, to `O=C1CCC(N2Cc3c(NC(=O)CCCCCCCCC(=O)N4CCC(C(=O)Nc5ncc(-c6ccccc6)s5)CC4)cccc3C2=O)C(=O)N1` (stereo not drawn) belongs 5.21 µM; to `O=C1CCC(N2C(=O)c3cc(F)c(N4CCN(C(=O)CCCCC(=O)N5CCC(C(=O)Nc6ncc(-c7ccccc7)s6)CC5)CC4)cc3C2=O)C(=O)N1` (stereo not drawn), over 10 µM; to `O=C(CC(=O)N1CCC(C(=O)Nc2ncc(-c3ccccc3)s2)CC1)NCCCCCC(=O)Nc1cccc2c1CN(C1CCC(=O)NC1=O)C2=O` (stereo not drawn), 7.1 µM.
On to `CN1CCC(C(=O)Nc2ncc(-c3ccccc3)s2)CC1`, for which the Activity in data set [5] is given as 9.59%; in data set [9], “Non-toxic”; in [10], 0.49%; in [12] it was 3.75%. The inhibition in vivo at 20 mg/kg in data set [6] stood at 28%. Moreover, the IC50 in data set [2] is 5320 nM; in [1], 3.32 µM; in data set [3] it was over 20 µM; in data set [8] it was 387 nM; in [4] it was 12.1 µM. The result in data set [7] was inactive. Besides, the viability at 0.3 µM in data set [11] was 86.2%.
`O=C(CCC(=O)N1CCC(C(=O)Nc2ncc(-c3ccccc3)s2)CC1)NCCCCCC(=O)Nc1cccc2c1CN(C1CCC(=O)NC1=O)C2=O` (stereo not drawn) gave an IC50 in [1] of over 10 µM.
Compound `O=C1CCC(N2Cc3c(NC(=O)CCCCOc4ccc(CCC(=O)N5CCC(C(=O)Nc6ncc(-c7ccccc7)s6)CC5)cc4)cccc3C2=O)C(=O)N1` (stereo not drawn) returned an IC50 in data set [1] of 9.89 µM.
In the case of `O=C1CCC(N2Cc3c(NC(=O)CCCCCCN4CCC(C(=O)Nc5ncc(-c6ccccc6)s5)CC4)cccc3C2=O)C(=O)N1` (stereo not drawn), 4.89 µM corresponded to half-maximal inhibition in [1] (IC50).
Same read-out and setting: to `O=C1CCC(N2Cc3c(NC(=O)CCc4ccc(OCCCC(=O)N5CCC(C(=O)Nc6ncc(-c7ccccc7)s6)CC5)cc4)cccc3C2=O)C(=O)N1` (stereo not drawn) belongs over 10 µM.
Still for that read-out and setting: the figure for `O=C(CC(=O)N1CCC(C(=O)Nc2ncc(-c3ccccc3)s2)CC1)NCCCCCCCC(=O)Nc1cccc2c1CN(C1CCC(=O)NC1=O)C2=O` (stereo not drawn) is 5.41 µM.
Same read-out and setting: the figure for `O=C1CCC(N2Cc3c(NC(=O)CCCCCCCN4CCC(C(=O)Nc5ncc(-c6ccccc6)s5)CC4)cccc3C2=O)C(=O)N1` (stereo not drawn) is over 10 µM.
As for `O=C1CCC(N2C(=O)c3cc(F)c(N4CCN(C(=O)CC(=O)N5CCC(C(=O)Nc6ncc(-c7ccccc7)s6)CC5)CC4)cc3C2=O)C(=O)N1` (stereo not drawn), the IC50 in [1] was over 10 µM.
Take `O=C(CC(=O)N1CCC(C(=O)Nc2ncc(-c3ccccc3)s2)CC1)NCCCCCCC(=O)Nc1cccc2c1CN(C1CCC(=O)NC1=O)C2=O` (stereo not drawn): the IC50 in data set [2] worked out at 1910 nM; in data set [1], 0.86 µM; in data set [3], 17.6 µM; in data set [4], 6.96 µM.
For `O=C(CC(=O)N1CCC(C(=O)Nc2ncc(-c3ccccc3)s2)CC1)NCCOCC(=O)Nc1cccc2c1CN(C1CCC(=O)NC1=O)C2=O` (stereo not drawn), in data set [1], the IC50 was over 10 µM.
Turning to `O=C1CCC(N2Cc3c(NC(=O)CCCCCN4CCC(C(=O)Nc5ncc(-c6ccccc6)s5)CC4)cccc3C2=O)C(=O)N1` (stereo not drawn), the IC50 came to 1220 nM in data set [2], 0.9 µM in data set [1], 12.2 µM in data set [3] and 11.5 µM in [4].
For the compound `O=C1CCC(N2Cc3c(NC(=O)CCCCN4CCC(C(=O)Nc5ncc(-c6ccccc6)s5)CC4)cccc3C2=O)C(=O)N1` (stereo not drawn), in [1], the IC50 was 3.36 µM.
Still for that read-out and setting: the figure for `O=C1CCC(N2C(=O)c3cc(F)c(N4CCN(C(=O)CCCCCC(=O)N5CCC(C(=O)Nc6ncc(-c7ccccc7)s6)CC5)CC4)cc3C2=O)C(=O)N1` (stereo not drawn) is 4.08 µM; for `O=C1CCC(N2C(=O)c3cc(F)c(N4CCN(C(=O)CCCCN5CCC(C(=O)Nc6ncc(-c7ccccc7)s6)CC5)CC4)cc3C2=O)C(=O)N1` (stereo not drawn) it is 7.9 µM.
The same measure, in the same setting: the figure for `CN1C(=O)CCC(N2Cc3c(NC(=O)CCCCCC(=O)N4CCC(C(=O)Nc5ncc(-c6ccccc6)s5)CC4)cccc3C2=O)C1=O` (stereo not drawn) is over 10 µM; for `O=C1CCC(N2Cc3c(NC(=O)CCCOc4ccc(CC(=O)N5CCC(C(=O)Nc6ncc(-c7ccccc7)s6)CC5)cc4)cccc3C2=O)C(=O)N1` (stereo not drawn) it is 6.38 µM; for `O=C1CCC(N2Cc3c(NC(=O)CCc4ccc(OCCCCC(=O)N5CCC(C(=O)Nc6ncc(-c7ccccc7)s6)CC5)cc4)cccc3C2=O)C(=O)N1` (stereo not drawn) it is over 10 µM.
On the same count and under the same terms, to `O=C1CCC(N2Cc3c(NC(=O)CCCCC(=O)N4CCC(C(=O)Nc5ncc(-c6ccccc6)s5)CC4)cccc3C2=O)C(=O)N1` (stereo not drawn) belongs 2.17 µM; to `O=C1CCC(N2Cc3c(NC(=O)CCCOc4ccc(CCC(=O)N5CCC(C(=O)Nc6ncc(-c7ccccc7)s6)CC5)cc4)cccc3C2=O)C(=O)N1` (stereo not drawn), 8.58 µM.
As to `O=C1CCC(N2C(=O)c3cc(F)c(N4CCN(C(=O)CCCC(=O)N5CCC(C(=O)Nc6ncc(-c7ccccc7)s6)CC5)CC4)cc3C2=O)C(=O)N1` (stereo not drawn), the results for the IC50 in [1] and in [8] were 8.98 µM and 640 nM, respectively.
